Measured values: ChEMBL document CHEMBL1144282, “Synthesis and SAR of 5,6-diarylpyridines as human CB1 inverse agonists” (Bioorg Med Chem Lett, 2005)

Experiments:
Cannabinoid receptor 2 = Cannabinoid receptor 2 (Homo sapiens, UniProt P34972)
Description: Inhibitory concentration tested against human Cannabinoid receptor 2 (hCB2)

in vivo [1] = settings: rat, iv, 1 mg/kg
Description: Volume of distribution at steady state was determined in rat after intravenous administration of 1 mg/kg compound

in vivo [2] = settings: rat, po, 2 mg/kg
in vivo [3] = settings: rat, iv, 1 mg/kg; remark: listed apart in the source
in vivo [4] = settings: rat, iv, 1 mg/kg; remark: listed apart in the source
Description: Half life period was determined in rat after intravenous administration of 1 mg/kg compound

Cannabinoid receptor 2, sequence (P34972 whole entry): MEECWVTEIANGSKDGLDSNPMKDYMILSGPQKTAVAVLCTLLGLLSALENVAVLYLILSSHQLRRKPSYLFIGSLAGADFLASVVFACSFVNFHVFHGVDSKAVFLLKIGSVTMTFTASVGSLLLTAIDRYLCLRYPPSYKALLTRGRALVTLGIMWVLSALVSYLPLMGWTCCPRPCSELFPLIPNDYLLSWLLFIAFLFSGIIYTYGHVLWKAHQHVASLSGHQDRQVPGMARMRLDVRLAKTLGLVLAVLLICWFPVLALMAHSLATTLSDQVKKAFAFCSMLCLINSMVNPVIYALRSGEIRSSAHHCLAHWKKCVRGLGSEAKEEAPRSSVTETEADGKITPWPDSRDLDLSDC

## CCCNC(=O)c1cc(-c2ccc(Cl)cc2)c(-c2ccc(Cl)cc2Cl)nc1OCc1ccc(F)c(F)c1
Cannabinoid receptor 2
  IC50: 815 nM
In vivo [1]
  Vd: 0.4 L/kg
In vivo [2]
  bioavailability: 12%
In vivo [3]
  clearance: 5.8 mL/min/kg
In vivo [4]
  half-life: 2.5 h
